Experimental data from US6214846A, “Substituted 3-(benzylamino)piperidine derivatives and their use as therapeutic agents” (Merck Sharp & Dohme Limited, priority 1997, dated 2001).
Where a name gives a salt, the structure may show the parent alone.

Molecular target: human NK1 receptor (Homo sapiens, UniProt P25103)
Experiment: IC50 at the human NK1 receptor (methods of pages 36 to 39 of WO 93/01165)
Type: binding
Conditions: test method of WO 93/01165
Protocol: The exemplified compounds of this invention were tested by the methods set out at pages 36 to 39 of International Patent Specification No. WO 93/01165.

human NK1 receptor, sequence (P25103 whole entry): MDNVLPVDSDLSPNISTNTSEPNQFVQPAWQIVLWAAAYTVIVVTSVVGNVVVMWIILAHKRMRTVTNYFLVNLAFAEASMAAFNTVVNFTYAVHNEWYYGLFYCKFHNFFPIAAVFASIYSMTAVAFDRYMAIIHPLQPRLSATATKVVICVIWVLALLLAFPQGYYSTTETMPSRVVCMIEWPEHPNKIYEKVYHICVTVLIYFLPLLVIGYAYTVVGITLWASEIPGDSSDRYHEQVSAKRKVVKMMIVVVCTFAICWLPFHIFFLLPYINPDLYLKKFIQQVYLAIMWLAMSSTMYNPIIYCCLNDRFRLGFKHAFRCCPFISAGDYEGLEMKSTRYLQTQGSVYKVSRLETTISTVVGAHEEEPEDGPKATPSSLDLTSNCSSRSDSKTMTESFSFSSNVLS

Compound | IC50
FC(F)(F)Oc1ccc(OC2CC2)c(CN[C@H]2CCCN[C@H]2c2ccccc2)c1 (relative stereo) [Example 1, (±)-(2R3R,2S3S)-N-{[2-Cyclopropoxy-5-(trifluoromethoxy)phenyl]methyl}-2-phenylpiperidin-3-amine Dihydrochloride] | 0.17 nM
Fc1ccc([C@@H]2NCCC[C@@H]2NCc2cc(OC(F)(F)F)ccc2OC2CC2)cc1 (relative stereo) [Example 3, (±)-(2R3R,2S3S)-N-{[2-Cyclopropoxy-5-(trifluoromethoxy)phenyl]methyl}-2-(4-fluorophenyl)piperidin-3-amine Dihydrochloride] | 0.2 nM
